Assay results from PMC3896271 (Beilstein Journal of Organic Chemistry, 2013).
Values joined by “and” are separate entries in the source; they are usually repeats but may differ in a detail not shown here. Identical values can stand only once.

What was measured:
[1] = target: T1, human κ-OR (Homo sapiens, UniProt P41145); assay: Competitive inhibition of [3H]diprenorphine binding to CHO-κ-OR membranes; conditions: for Ki: displacement of [3H]diprenorphine from CHO cell membranes expressing human κ-OR, n = 3, in duplicate, read-out: Ki ± SEM
T1 construct: expressed in transfected cells; host or cells: CHO cells, stably transfected; membranes

[2] = target: T2, rat μ opioid receptor (Rattus norvegicus, UniProt P33535); assay: biochemical; format: binding
T2 construct: expressed in transfected cells; host or cells: CHO cells, stably transfected; membranes

[3] = target: T3, mouse δ opioid receptor (Mus musculus, UniProt P32300); assay: biochemical; format: binding
T3 construct: expressed in transfected cells; host or cells: CHO cells, stably transfected; membranes

[4] = test system: T4, κ-OR (CHO-hκ-OR); assay: Antagonism of dynorphin A (10 nM) at κ-OR in the [35S]GTPγS assay; format: biochemical, human; conditions: for [35S]GTPγS binding (% increase over basal), single experiments / [35S]GTPγS binding (% increase over basal), Mean: antagonist 3 μM; for [35S]GTPγS binding (% increase over basal), single experiments: without antagonist 130 and 296; for [35S]GTPγS binding (% increase over basal), Mean: without antagonist mean 213
T4 construct: expressed in transfected cells; host or cells: CHO cells, stably transfected; membranes

[5] = test system: κ-OR; design: method as in doi:10.1007/978-1-59745-197-0_6; conditions: cited from earlier work
[6] = target: T1, human κ-OR; assay: biochemical

SMILES	Ki [1] [nM]	affinity for µ-OR (in words) [2]	affinity for δ-OR (in words) [3]	[35S]GTPγS binding (% increase over basal), single experiments [4]	[35S]GTPγS binding (% increase over basal), Mean [4] [% increase over basal]	Ki [2] [nM]	Ki [3] [nM]	antagonism of dynorphin A (in words) ([4]; primary screen at 3 μM)	Ke [5] [pM]	inhibition at 3 µM ([1]; 3 µM, κ-OR, read-out: inhibition (displacement) of [3H]diprenorphine binding, initial screening) [%]	EC50 [6] [nM]	Emax [6] [%]
COC(=O)C1CC(OC(C)=O)C(=O)C2C1(C)CCC1C(=O)OC(c3cc(CO)oc3CO)CC12C (stereo not drawn) [compound 5]	> 1000	no affinity	no affinity	175 % increase over basal and 278 % increase over basal	226							
COC(=O)C1CC(OC(C)=O)C(=O)C2C1(C)CCC1C(=O)OC(c3coc(CN(C)C)c3)CC12C (stereo not drawn) [compound 3]	> 1000	no affinity	no affinity	146 % increase over basal and 270 % increase over basal	208							
COC(=O)C1CC(OCOCCO)C(=O)C2C1(C)CCC1C(=O)OC(c3ccoc3)CC12C (stereo not drawn) [compound 6]	12.7 ± 1.3					> 1000	> 1000					
CC(C)[C@@H](CN1CC[C@@](C)(c2cccc(O)c2)[C@@H](C)C1)NC(=O)[C@H]1Cc2ccc(O)cc2CN1 [JDTic, reference compound]					0			abolished response to dynorphin A	< 40			
COC(=O)C1CC(OC(C)=O)C(=O)C2C1(C)CCC1C(=O)OC(c3ccoc3CO)CC12C (stereo not drawn) [compound 4]	110 ± 10			249 % increase over basal and 415 % increase over basal	332					≥ 50	345 ± 47	103
COC(=O)C1CC(OC(C)=O)C(=O)C2C1(C)CCC1C(=O)OC(c3ccoc3CN(C)C)CC12C (stereo not drawn) [compound 2]	> 1000	no affinity	no affinity	182 % increase over basal and 319 % increase over basal	251							
